Experimental data reported in patent US20230183193A1, “4-DIFLUOROMETHYL BENZOYL AMIDES WITH HERBICIDAL ACTION” (BAYER CROPSCIENCE AKTIENGESELLSCHAFT, priority 2017, published 2023).

How the values were obtained:
Format in all cases: in vivo
[1] = tested on: Avena fatua; assay: Pre-emergence herbicidal action, AVEFA; conditions: dosage 320 g/ha, scored visually after 3 weeks vs untreated controls
Summary of the method: (§1)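 Percent herbicidal activity rated by eye 3 weeks after pre-emergence soil-surface application, compared with untreated pots. Seeds sat under sandy loam; sprays carried 0.2% wetting agent.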

[2] = tested on: Alopecurus myosuroides; assay: Pre-emergence herbicidal action, ALOMY; conditions: dosage 320 g/ha, scored visually after 3 weeks vs untreated controls
Summary of the method: as §1

[3] = tested on: Matricaria inodora; assay: Pre-emergence herbicidal action, MATIN; conditions: dosage 320 g/ha, scored visually after 3 weeks vs untreated controls
Summary of the method: as §1

[4] = tested on: Viola tricolor; assay: Pre-emergence herbicidal action, VIOTR; conditions: dosage 320 g/ha, scored visually after 3 weeks vs untreated controls
Summary of the method: as §1

[5] = tested on: Cyperus serotinus; assay: Pre-emergence herbicidal action, CYPES; conditions: dosage 320 g/ha, scored visually after 3 weeks vs untreated controls
Summary of the method: as §1

[6] = tested on: Amaranthus retroflexus; assay: Post-emergence herbicidal action, AMARE; conditions: 80 g/ha, Table D
Summary of the method: (§2)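 Post-emergence spray; one-leaf stage (2–3 wk after sowing), sandy loam, greenhouse. WP/EC in water, 600 to […], +0.2% wetting agent. Visual % damage vs untreated at ~3 wk; 100% = plants dead.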

[7] = tested on: Setaria viridis; assay: Post-emergence herbicidal action, SETVI; conditions: 80 g/ha, Table C
Summary of the method: as §2

[8] = tested on: Viola tricolor; assay: Post-emergence herbicidal action, VIOTR; conditions: 80 g/ha, Table D
Summary of the method: as §2

[9] = tested on: Alopecurus myosuroides; assay: Post-emergence herbicidal action, ALOMY; conditions: 80 g/ha, Table C
Summary of the method: as §2

[10] = tested on: Stellaria media; assay: Pre-emergence herbicidal action, STEME; conditions: dosage 320 g/ha, scored visually after 3 weeks vs untreated controls
Summary of the method: as §1

[11] = tested on: Avena fatua; assay: Post-emergence herbicidal action, AVEFA; conditions: 80 g/ha, Table C
Summary of the method: as §2

[12] = tested on: Stellaria media; assay: Post-emergence herbicidal action, STEME; conditions: 80 g/ha, Table D
Summary of the method: as §2

[13] = tested on: Setaria viridis; assay: Pre-emergence herbicidal action, SETVI; conditions: dosage 320 g/ha, scored visually after 3 weeks vs untreated controls
Summary of the method: as §1

[14] = tested on: ECHCG; assay: Post-emergence herbicidal action, ECHCG; conditions: 80 g/ha, Table C
Summary of the method: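 Weed and crop plants grown in sandy loam in the greenhouse, treated at the one-leaf stage 2–3 weeks after sowing. Damage scored visually after about 3 weeks vs untreated controls (0% = control, 100% = dead).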

[15] = tested on: Abutilon theophrasti; assay: Post-emergence herbicidal action, ABUTH; conditions: 80 g/ha, Table D
Summary of the method: as §2

[16] = tested on: Abutilon theophrasti; assay: Pre-emergence herbicidal action, ABUTH; conditions: dosage 320 g/ha, scored visually after 3 weeks vs untreated controls
Summary of the method: as §1

[17] = tested on: Pharbitis purpureum; assay: Post-emergence herbicidal action, PHBPU; conditions: 80 g/ha, Table D
Summary of the method: as §2

[18] = tested on: Amaranthus retroflexus; assay: Pre-emergence herbicidal action, AMARE; conditions: dosage 320 g/ha, scored visually after 3 weeks vs untreated controls
Summary of the method: as §1

Structure (SMILES)	herbicidal activity AVEFA [1] [%]	herbicidal activity ALOMY [2] [%]	herbicidal activity MATIN [3] [%]	herbicidal activity VIOTR [4] [%]	herbicidal activity CYPES [5] [%]	herbicidal activity AMARE [6] [%]	herbicidal activity SETVI [7] [%]	herbicidal activity VIOTR [8] [%]	herbicidal activity ALOMY [9] [%]	Herbicidal activity STEME [10] [%]	herbicidal activity AVEFA [11] [%]	Herbicidal activity STEME [12] [%]	herbicidal activity SETVI [13] [%]	Herbicidal activity ECHCG [14] [%]	herbicidal activity ABUTH [15] [%]	herbicidal activity ABUTH [16] [%]	Herbicidal activity PHBPU [17] [%]	herbicidal activity AMARE [18] [%]
CCS(=O)(=O)c1c(C(F)F)ccc(C(=O)Nc2nnnn2C)c1C1CC1 [Example 1-30]	100	100	100	100	90	90	100	100	100	100	100	100	100	100	100	100	90	100
CC[S+]([O-])c1c(C(F)F)ccc(C(=O)Nc2nnnn2C)c1C1CC1 (stereo not drawn) [Example 1-29]	100	100	100	100	100	100	100	100	100	100	90	100	100	100	100	100	100	100
CC[S+]([O-])c1c(C(F)F)ccc(C(=O)Nc2nnnn2C)c1Cl (stereo not drawn) [Example 1-53]	100	100	100	100	100	100	100	100	100	100	100	100	100	90	100	100	100	100
CCn1nnnc1NC(=O)c1ccc(C(F)F)c(SC)c1C1CC1 [Example 2-25]	100	100	100	100	100	100	100	100	100	100	100	100	100	100	100	100	100	100
CCSc1c(C(F)F)ccc(C(=O)Nc2nnnn2CC)c1CC [Example 2-16]	100	100	100	100	100	100	90	100	90	100	90	100	100	90	100	100	100	100
CC[S+]([O-])c1c(C(F)F)ccc(C(=O)Nc2nnnn2C)c1Br (stereo not drawn) [Example 1-65]	100	100	100	100	90	100	100	100	100	100	100	100	100	100	100	100	100	100
CC[S+]([O-])c1c(C(F)F)ccc(C(=O)Nc2nnc(C)o2)c1I (stereo not drawn) [Example 7-75]	100	100	100	100	100	100	90	100	80	100	100	80	100	100	90	100	80	100
CCS(=O)(=O)c1c(C(F)F)ccc(C(=O)Nc2ncnn2C)c1Cl [Example 4-54]	80	90	100	100	80	90	100	100	90	100	100	100	90	100	90	100	100	100
CSc1c(C(F)F)ccc(C(=O)Nc2nnnn2C)c1Br [Example 1-61]	100	100	100	100	100	90	90	100	90	100	100	100	100	90	100	100	100	100
